From patent publication US5972933A, “Method of treating microbial infections” (Ed. Geistlich Sohne AG Fur Chemische Industrie, priority 1998, dated 1999)
In brackets after ≈: the same amount, converted by molar mass. Like-named read-outs stand apart in the source and are kept apart here.

How the values were obtained:
TNF production = TNF production in human blood / antibiotic-treated cultures; type: cell-based
Description: Taurolidine and/or Taurultam prevent over-production of cytokines in the patient by monocytes of the blood.

E. faecium = experiment: Two percent taurolidine solution tested against bacteria, E. faecium (Example 5); type: cell-based; conditions: Enterococcus faecium, 48 h, 5×10^4 CFU/well, one line per sample (strain)
Method: (§1) Two percent taurolidine solution was tested against various bacteria at 5×10^4 CFU/well, according to Manual of Clinical Microbiology, 6th edition, P. R. Murray et al., pp. 1334-1335.

E. faecalis = experiment: Two percent taurolidine solution tested against bacteria, E. faecalis (Example 5); type: cell-based; conditions: Enterococcus faecalis, 24 h, 5×10^4 CFU/well, one line per sample (strain)
Method: as §1

[1] = test system: Methicillin-Resistant Staphylococcus aureus (MRSA); experiment: Taurolidine MIC by broth microdilution, methicillin-resistant S. aureus (EMRSA 15); type: cell-based; conditions: compared to NCTC 6571 or previous studies with fully sensitive strains
Method: All test strains were clinical isolates recovered from patients attending Hammersmith Hospital, London. Strains of Staphylococcus aureus (epidemic methicillin-resistant strain 15 (EMRSA 15) and vancomycin-resistant Enterococcus faecalis were broadly unselected isolates from local culture collections. However, strain selection was conducted so as to ensure that isolates were not consecutive isolates from individual patients.
Taurolidine MICs were performed using a sample of authenticated anhydrous micronised taurolidine batch number E/40522/4 (Geistlich Pharma AG, Wolhusen, Switzerland).
An aqueous stock solution of taurolidine was prepared to contain 2 g/100 ml taurolidine in water. This preparation was solubilized and sterilized by heating to 121° C. (15 psi) for 15 minutes.
Using this stock solution, serial doubling dilution of taurolidine were prepared in Unipath (Oxoid) Nutrient Broth Number 2 using 50 μl volumes in sterile round bottom microdilution trays. To these dilutions was added an equal volume of drug-free broth containing a suspension of the test organism to give a final inoculumn density of approximately 10^3 cfu. Inocula were prepared from overnight drug-free broth cultures of each test organism in Unipath (Oxoid) Nutrient Broth Number 2.
Final test concentrations of taurolidine were as follows:
All tests were incubated at 37 C for 18 hours. […]

Enterococci = experiment: Taurolidine in vitro susceptibility, Enterococci overall (Example 4); type: cell-based, Enterococcus faecium and Enterococcus faecalis
Description: (§2) The in vitro susceptibility to taurolidine of a panel of clinical isolates and reference strains of Enterococcus faecium (n=20,7 strains vancomycin resistant) and Enterococcus faecalis (n-53,5 strains vancomycin resistant) has been examined. […] In all cases, the Minimum Bacteriocidal Concentration (MBC) of taurolidine was within 2 dilutions of the corresponding value for MIC confirming a bactericidal mode of action. In vitro resistance to taurolidine was not observed.

[2] = cited from earlier work
Enterococcus faecium = experiment: Taurolidine in vitro susceptibility, E. faecium (Example 4); type: cell-based
Description: as §2

Staph. app. = experiment: Two percent taurolidine solution tested against bacteria, Staph. app. (Example 5); type: cell-based; conditions: 24 h, 5×10^4 CFU/well
Method: as §1

O=S1(=O)CCN(CN2CCS(=O)(=O)NC2)CN1 [Taurolidine]
TNF production (TNF production; added to antibiotic-treated cultures): prevents a rise in TNF production | neutralization of released endotoxins (TNF production; antibiotic-treated cultures): nearly complete neutralization of released endotoxins | MIC (E. faecium): 250 mg/L (≈ 879 µM) | MBC (E. faecalis): 500 mg/L (≈ 1760 µM) | difference in level of susceptibility to taurolidine [1]: no difference in level of susceptibility to taurolidine | difference in degree of susceptibility between E. faecalis and E. faecium (Enterococci): no difference in degree of susceptibility | In vitro resistance to taurolidine (Enterococci; E. faecium and E. faecalis): not observed | MBC relative to corresponding MIC (Enterococci; all cases, bactericidal mode of action): ≤ 2 dilutions | difference in MICs or MBCs between strains (Enterococci; vancomycin-sensitive or vancomycin-resistant, various locations across Europe): No differences were noted | half-life in vivo [2]: short half-life in vivo | MIC (Enterococcus faecium; E. faecium strains, read-out: MIC range): 95 to 375 mg/L (≈ 334 to 1320 µM) | MBC (Enterococcus faecium; E. faecium, VAN R strains, read-out: MBC, Avg.): 446 mg/L (≈ 1570 µM) | MBC (Enterococcus faecium; E. faecium, VAN R strains, read-out: MBC, Max.): 500 mg/L (≈ 1760 µM) | MBC (Enterococcus faecium; E. faecium, VAN R strains, read-out: MBC, Mean): 446 mg/L (≈ 1570 µM) | MBC (Enterococcus faecium; E. faecium, VAN R strains, read-out: MBC, Median): 500 mg/L (≈ 1760 µM) | MBC (Enterococcus faecium; E. faecium, VAN R strains, read-out: MBC, Min.): 375 mg/L (≈ 1320 µM) | MBC (Enterococcus faecium; E. faecium, VAN R strains, read-out: MBC, Mode): 500 mg/L (≈ 1760 µM) | MIC (Enterococcus faecium; E. faecium, VAN R strains, read-out: MIC, Avg.): 161 mg/L (≈ 566 µM) | MIC (Enterococcus faecium; E. faecium, VAN R strains, read-out: MIC, Max.): 250 mg/L (≈ 879 µM) | MIC (Enterococcus faecium; E. faecium, VAN R strains, read-out: MIC, Mean): 161 mg/L (≈ 566 µM) | MIC (Enterococcus faecium; E. faecium, VAN R strains, read-out: MIC, Median): 95 mg/L (≈ 334 µM) | MIC (Enterococcus faecium; E. faecium, VAN R strains, read-out: MIC, Min.): 95 mg/L (≈ 334 µM) | MIC (Enterococcus faecium; E. faecium, VAN R strains, read-out: MIC, Mode): 95 mg/L (≈ 334 µM) | MBC (Enterococcus faecium; E. faecium, VAN S strains, read-out: MBC, Avg.): 666 mg/L (≈ 2340 µM) | MBC (Enterococcus faecium; E. faecium, VAN S strains, read-out: MBC, Max.): 1000 mg/L (≈ 3520 µM) | MBC (Enterococcus faecium; E. faecium, VAN S strains, read-out: MBC, Mean): 666 mg/L (≈ 2340 µM) | MBC (Enterococcus faecium; E. faecium, VAN S strains, read-out: MBC, Median): 750 mg/L (≈ 2640 µM) | MBC (Enterococcus faecium; E. faecium, VAN S strains, read-out: MBC, Min.): 500 mg/L (≈ 1760 µM) | MBC (Enterococcus faecium; E. faecium, VAN S strains, read-out: MBC, Mode): 750 mg/L (≈ 2640 µM) | MIC (Enterococcus faecium; E. faecium, VAN S strains, read-out: MIC, Avg.): 323 mg/L (≈ 1140 µM) | MIC (Enterococcus faecium; E. faecium, VAN S strains, read-out: MIC, Max.): 375 mg/L (≈ 1320 µM) | MIC (Enterococcus faecium; E. faecium, VAN S strains, read-out: MIC, Mean): 323 mg/L (≈ 1140 µM) | MIC (Enterococcus faecium; E. faecium, VAN S strains, read-out: MIC, Median): 375 mg/L (≈ 1320 µM) | MIC (Enterococcus faecium; E. faecium, VAN S strains, read-out: MIC, Min.): 125 mg/L (≈ 440 µM) | MIC (Enterococcus faecium; E. faecium, VAN S strains, read-out: MIC, Mode): 375 mg/L (≈ 1320 µM) | MBC (Enterococcus faecium; E. faecium, all strains, read-out: MBC, Avg.): 581 mg/L (≈ 2040 µM) | MBC (Enterococcus faecium; E. faecium, all strains, read-out: MBC, Max.): 1000 mg/L (≈ 3520 µM) | MBC (Enterococcus faecium; E. faecium, all strains, read-out: MBC, Mean): 581 mg/L (≈ 2040 µM) | MBC (Enterococcus faecium; E. faecium, all strains, read-out: MBC, Median): 500 mg/L (≈ 1760 µM) | MBC (Enterococcus faecium; E. faecium, all strains, read-out: MBC, Min.): 375 mg/L (≈ 1320 µM) | MBC (Enterococcus faecium; E. faecium, all strains, read-out: MBC, Mode): 500 mg/L (≈ 1760 µM) | MIC (Enterococcus faecium; E. faecium, all strains, read-out: MIC, Avg.): 260 mg/L (≈ 914 µM) | MIC (Enterococcus faecium; E. faecium, all strains, read-out: MIC, Max.): 375 mg/L (≈ 1320 µM) | MIC (Enterococcus faecium; E. faecium, all strains, read-out: MIC, Mean): 260 mg/L (≈ 914 µM) | MIC (Enterococcus faecium; E. faecium, all strains, read-out: MIC, Median): 250 mg/L (≈ 879 µM) | MIC (Enterococcus faecium; E. faecium, all strains, read-out: MIC, Min.): 95 mg/L (≈ 334 µM) | MIC (Enterococcus faecium; E. faecium, all strains, read-out: MIC, Mode): 375 mg/L (≈ 1320 µM) | MBC (Staph. app.): 375 mg/L (≈ 1320 µM) | MIC (Staph. app.; read-out: MIC 24 h): 190 mg/L (≈ 668 µM)
